In this experiment the test system is chicks fed a phytic phosphorous basal diet. Description: chicken model: chicks fed Pi deficient phytic phosphorous diet with added 1α-hydroxyvitamin D3. In kind it is in vivo, Single Comb White Leghorn chicks. From the text:
Animal model: The dietary sources of inorganic phosphate (Pi) are largely mineral phosphates or phosphate from animal tissues and products (milk and eggs). These Pi sources are readily available for absorption by monogastric animals. In diseases where the uptake of phosphorous requires intervention, patients are usually required to avoid these foods and take Pi binders. While this is a useful strategy in reducing the absorption of Pi, patients taking alternative food (e.g., plant based foods) during the treatment of diseases such as end stage renal failure is exposed to another source of phosphate that may serve as a pool of Pi for absorption. Phytic phosphorous (PP) represents 70-80% of all phosphorous in plant based foods. PP is normally unavailable for absorption in monogastric animals when consumed and is excreted with the fecal waste.
Providing 1α-hydroxyvitamin D3 to the chickens fed the Pi deficient diet raised the serum phosphate level. Therefore, this model can be used to test whether anti-phytic acid antibodies would be effective in reducing increased serum phosphate levels from a phytic origin caused by 1α-hydroxyvitamin D3.
Animal experiment: The model used in this study was described by Biehl and Baker, J. Nutr. 1997, 127:2054-2059 with the exception of antibodies to phytic acid. The negative control used in this study was a Pi deficient diet (Pi=inorganic phosphate which are largely mineral phosphates or phosphate from animal tissues and products such as milk and eggs), where the dietary phosphorous used was phytic phosphate. […] The positive control was the same diet as the negative control, but supplemented with 1α-hydroxyvitamin D3 (20 μg/kg diet, Sigma). […] The remaining dietary treatment was the positive control plus the antibody to phytic acid (1 g of dried egg yolk powder produced as described above). The negative and positive controls were fed 1 g/kg diet of dried yolk powder from hens injected with the adjuvant. These egg yolk powders lacked specific antibodies.
A total of 3 treatments were used (negative control, positive control, positive control plus antibody to phytic acid). Six one-day old male Single Comb White Leghorn chicks were assigned to each of the dietary treatments. Chicks were fed the dietary treatments for 10 days, weighed, and blood sampled for determining plasma phosphorous concentration using a Roche/Hitachi analyzer (based on the reaction of phosphate with ammonium molybdate to form ammonium phosphomolybdate without reduction). Excreta (n=1) was collected under each group of 6 chicks for mineral analysis. Chicks were euthanized and the right tibiotarsus of each chick was collected, dried, ether extracted, and ashed for the determination of bone mineral content of fat free, dried bone.
t-Test comparison were used to determine if (1) the addition of 1α-hydroxyvitamin D3 changed the endpoint relative to the negative control diet and (2) the addition of antibody to phytate to the 1α-hydroxyvitamin D3 diet (positive control) reduced the plasma phosphate level. P values are given in the results presented below.

Setting [1] is: relative to Pi deficient negative control diet.

Structures are written as SMILES.

Take `C=C1/C(=C\C=C2/CCC[C@]3(C)[C@@H]([C@H](C)CCCC(C)C)CC[C@@H]23)C[C@@H](O)C[C@@H]1O` [1α-hydroxyvitamin D3]: for the setting “chicks, Pi deficient diet, 10 days, 1α-hydroxyvitamin D3 20 μg/kg diet alone, or plus antibody 1 g/kg diet dried egg yolk powder”, the “Plasma Phosphate” value came to 6.70 mg/dL. The compound also had an excreta phosphorous (excreta (n=1) collected under each group of 6 chicks) of 0.5%. Under setting [1], the “decrease of excreta phosphorous” value is reported as 22%, the “increase of bone ash” value is on record as 8% and the “increase of plasma phosphorous” value is on record as 71%. Further, the bone ash (right tibiotarsus, fat free dried bone, after 10 days of diet) worked out at 37.4%.

Values taken from patent US20100143385A1, “METHODS FOR REDUCING PHOSPHATE ABSORPTION” (priority 2006, published 2010).
